Counter-ions that a name gives are not always drawn. Like-named read-outs stand apart in the source and are kept apart here.
Legend:
[1] = target: T1, VAP-1 in abdominal fat of mice (Mus musculus, UniProt O70423); experiment: Inhibition of VAP-1 enzymatic activity at different dose and time conditions (ex-vivo); assay type: in vivo, BALBc mice; conditions: for Inhibition rate against the enzymatic activity of VAP-1 in abdominal fat of mice: hydrochloride; for inhibition at 0.5 mg/kg / inhibition at 3 mg/kg: mouse, po, read-out: Inhibition rate against the enzymatic activity of VAP-1 in abdominal fat of mice
T1 construct: abdominal fat was collected and homogenized; from tissue; host or cells: abdominal fat of BALBc mice (homogenate supernatant)
T1 sequence (O70423 1-765): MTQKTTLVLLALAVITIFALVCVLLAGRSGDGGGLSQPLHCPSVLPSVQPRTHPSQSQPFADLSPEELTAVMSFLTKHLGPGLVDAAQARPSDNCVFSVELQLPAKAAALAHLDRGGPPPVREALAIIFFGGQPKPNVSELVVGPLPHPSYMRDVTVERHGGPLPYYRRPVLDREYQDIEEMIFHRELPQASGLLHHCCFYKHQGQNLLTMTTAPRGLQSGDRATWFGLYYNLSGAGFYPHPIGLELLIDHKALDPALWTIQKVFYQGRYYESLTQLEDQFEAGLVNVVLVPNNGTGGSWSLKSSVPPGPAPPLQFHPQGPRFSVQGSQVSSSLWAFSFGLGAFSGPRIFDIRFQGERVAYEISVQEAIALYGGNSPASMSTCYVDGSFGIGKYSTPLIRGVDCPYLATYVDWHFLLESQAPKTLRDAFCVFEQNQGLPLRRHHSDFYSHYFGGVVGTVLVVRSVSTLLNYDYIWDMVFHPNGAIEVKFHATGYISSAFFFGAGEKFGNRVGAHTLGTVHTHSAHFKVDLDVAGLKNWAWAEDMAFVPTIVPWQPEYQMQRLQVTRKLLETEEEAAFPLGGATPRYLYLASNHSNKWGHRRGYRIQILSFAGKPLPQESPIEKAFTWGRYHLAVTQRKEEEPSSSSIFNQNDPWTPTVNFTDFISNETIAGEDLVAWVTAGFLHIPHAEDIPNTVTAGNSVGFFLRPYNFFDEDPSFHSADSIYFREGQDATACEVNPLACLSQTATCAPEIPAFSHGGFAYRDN
Method: Inhibition Experiment Against the Enzymatic Activity at Different Does and Time Conditions (ex-vivo)
Tissue homogenate buffer solution (20 mM HEPES, pH 7.2, 1 mM EDTA, 250 mM sucrose, PMSF 0.2 mM)
Reaction buffer solution: 50 mM PBS, pH 7.4
Test kit: Amplex® Red Monoamine Oxidase Assay, Manufacturer: ThermoFisher
BALBc mice were orally administrated with different doses (0.5 mg/kg, 3 mg/kg) of the test compound, and the vehicle group was used as the control group. Abdominal fat was collected at 6 hrs, 10 hrs, 24 hrs respectively, and homogenized with a pre-cooled homogenate buffer solution, and thereafter, the supernatant was collected and stored for use.
A test sample was diluted with the reaction buffer solution, and respectively added with the inhibition solution A 1 μM Clorgyline+1 μM pargylin, to inhibit the activities of MAO-A and MAO-B, and the inhibition solution B: 1 μM Clorgyline+1 μM Pargylin+1 μM Mofegiline as the Wank control, and after being incubated at room temperature, 500 μM benzylamine hydrochloride, 1 U/mL HRP and 200 μM Amplex Red reagent were added to start the reaction. By referring to the method in “Experiment of inhibiting the enzymatic activity of VAP-1”, the relative activities of each dose groups were calculated, wherein ratio of the fluorescent signal to reaction time in the linear range is the reaction rate, and the vehicle group is the positive control, thereby to study the inhibition of the compound against the enzymatic activity of VAP-1 in abdominal fat of mice.

[2] = Caco-2 permeation experiment; assay type: in vitro ADME; conditions: human
Method: (§1) Caco-2 Permeation Experiment
(§2) Culture medium: 10%FBS+1% unnecessary amino acid+90%DMEM (high glucose)
(§3) Permeation solution (pH 7.4): HBSS (Ca^+, Mg^+)+10 mM Hepes
(§4) Compound reservation solution: an amount of the test compound was weighted and added with a certain amount of DMSO to formulate a 10 mM reservation solution.
(§5) Cells were inoculated to Transwell cells in a quantity of 6*10^4/cm^2, and at the A side (top side), were added with 200 μL of the culture medium, and at the B side (base side), were added with 1000 μL of the culture medium. After the inoculation, the solution was replaced once every 2 days, and the culture was conducted for 21 to 28 day.
(§6) After 21 to 28 days since the inoculation of Caco-2 cells, the transmembrane resistance was measured.
(§7) Permeation experiment: after the transepithelial electrical resistance was measured, the buffer solution at the two sides was removed by suction, then added thereto the solution according to the following system.
(§8) According to the experimental conditions as shown in the following Table 15, the reaction solution in each experimental group was formulated: […]
(§9) Sample treatment: after 2-hours incubation, 50 μL of the permeation solution were sucked up from each side of side A and side B, and equivalent volume of cold acetonitrile was added to terminate the reaction, and the concentrations of the compound at the A and B sides were measured by LC-MS/MS. The apparent permeation (Papp) and the Efflux Ratio were calculated according to the following equations:
(§10) Efflux Ratio=Papp(BA)/Papp (AB)
(§11) wherein, dCr/dt is the integration of the concentration of the compound at the base side realted to time, Vr is the reaction volume at the base side, A is the area of a single layer of cells, being 0.33 cm^2, and C0 is the concentration of the compound at the top side.

Caco-2 cells = experiment: Caco-2 permeation experiment; assay type: in vitro ADME; conditions: 2 μM
Method: as §1, §2, §3, §4, §5, §6, §7, §8, §9, §10, §11

- Inhibition rate against the enzymatic activity of VAP-1 in abdominal fat of mice ([1]; 0.5 mg/kg oral, 6 hours): 95.8 ± 3.6%
- Inhibition rate against the enzymatic activity of VAP-1 in abdominal fat of mice ([1]; 3.0 mg/kg oral, 10 hours): 95.3 ± 1.9%
- inhibition at 0.5 mg/kg ([1]; 0.5 mg/kg oral, 6 hours): ~95%
- inhibition at 0.5 mg/kg ([1]; 0.5 mg/kg oral, 10 hours): 90.3 ± 3.2%
- inhibition at 0.5 mg/kg ([1]; 0.5 mg/kg oral, 24 hours): 68.1 ± 7.4%
- inhibition at 3 mg/kg ([1]; 3.0 mg/kg oral, 6 hours): 96.4 ± 5.6%
- inhibition at 3 mg/kg ([1]; 3.0 mg/kg oral, 10 hours): ~95%
- inhibition at 3 mg/kg ([1]; 3.0 mg/kg oral, 24 hours): 78 ± 9.3%
- Papp A→B at 120 min, 2 μM ([2]; Caco-2, 120 min, pH 7.4, read-out: Average apparent permeability A to B): 2.6 ×10⁻⁶ cm/s
- Papp B→A at 120 min, 2 μM ([2]; Caco-2, 120 min, pH 7.4, read-out: Average apparent permeability B to A): 3.26 ×10⁻⁶ cm/s
- efflux ratio at 2 h, 2 μM ([2]; Caco-2, pH 7.4, Papp(BA)/Papp(AB)): 1.26
- Average apparent permeability A to B (Caco-2 cells; 120 min, pH 7.4): high permeability
- Efflux ratio (Caco-2 cells; Papp(BA)/Papp(AB)): low possibility of active efflux
Compound: CC1(C)Cc2cc(OC/C(=C/F)CN)ccc2C(=O)N1 [HC38-E, (E)-6-((2-(aminomethyl)-3-fluoroallyl)oxy)-3,3-dimethyl-3,4-dihydroisoquinolin-1(2H)-one hydrochloride]

— patent US20200087248A1, “Fluoroallylamine Derivative And Use Thereof” (SICHUAN KELUN-BIOTECH BIOPHARMACEUTICAL CO., LTD., priority 2017, published 2020)
